Measured values published in paper PMC7321169, “N-Alkylaminoferrocene-Based Prodrugs Targeting Mitochondria of Cancer Cells” (Molecules, 2020).

Columns and labels:
[1] = Generation of ROS in cell free settings (2′,7′-dichlorofluorescin oxidation in the presence of H2O2); settings: H2O2 10 mM; for Initial rate (dF/dt)0 of DCFH oxidation in the presence of H2O2: compound 49.5 μM, DCFH 10 μM, GSH 5 mM, EDTA 10 mM, MOPS buffer, 37 °C; for Activity in DCFH oxidation assay relative to prodrug 5: more active than 5, 49.5 μM
Protocol: 2′,7′-Dichlorofluorescin diacetate (DCFH-DA, 4.9 mg) was dissolved in 100 µL DMF and mixed with 0.1 M NaOH (900 µL). This mixture was incubated on a shaker for 30 min at 25 °C in the dark to obtain 10 mM 2′,7′-dichlorofluorescin (DCFH) stock solution. Next, 3-(N-morpholino)propanesulfonic acid buffer (MOPS buffer 100 mM, pH: 7.4) containing N,N,N’,N’-ethylenediaminetetraacetic acid (EDTA, 10 mM), glutathione (GSH, 5 mM) and H2O2 (10 mM) was prepared. Finally, DCFH was diluted in this buffer to 10 µM as the final concentration. Monitoring of the fluorescence was started (λex: 501 nm, λem: 525 nm). […] DMF and FeSO4 in DMF were used as controls. The measurement was conducted for 300 min (Table S2, Figure 1A).

A2780 cells = experiment: Viability of adherent A2780 cells (MTT); assay type: cell-based, human
Protocol: (§1) Adherent A2780, DU-145 and NHDF cells were grown as mentioned before. Then, the cells were resuspended in the RPMI 1640 (DMEM for HDFa cell line) medium containing 5% FBS (for 24- and 48 h assays) or 10% FBS (for 96 h assays) 1% L-glutamine, and 1% penicillin/streptomycin. This suspension was spread in the wells of a 96-well microtiter plate. Every well in the plates contained 25,000 cells (exceptions: 12,500 cells for the 96h-assay and 10,000 cells for experiments with HDFa cell line) per well per 100 μL and was left at 37 °C in the chamber filled with CO2 (5%) overnight. Stock solutions of prodrugs of different concentrations (1 μL, solvent DMSO) were added to the wells and incubated for 24–96 h. Four experiments were conducted for each concentration of the prodrug. Finally, 3-(4,5-dimethylthiazol-2-yl)-2,5-diphenyltetrazolium bromide (MTT; 20 μL of the solution prepared by dissolving MTT (5 mg) in PBS buffer (1 mL)) was added to each well, incubated for 3 h, treated with sodium dodecyl sulfate (SDS) solution (90 μL, 10% solution in 0.01 M aqueous HCl), and incubated overnight. Then the intensity of absorbance at 590 nm was measured (MTT is converted to blue dye (λmax = 590 nm) in live cells). The absorbance at 690 nm was taken as a baseline value.

BL-2 cells = experiment: Viability of suspension BL-2 cells (MTT); assay type: cell-based
Protocol: The suspension of BL-2 cells in the RPMI 1640 medium containing 5% FBS (for 24- and 48 h assays) or 10% FBS (for 96 h assays) 1% L-glutamine, and 1% penicillin/streptomycin was spread in the wells of a 96-well microtiter plate. Every plate contained 50,000 cells (with the exception of the 96h-experiment, for which 25,000 cells were used) per well per 100 μL. Stock solutions of prodrugs of different concentrations (1 μL, solvent DMSO) were added to the wells and incubated for 24–96 h. Four experiments were conducted for each concentration of the prodrug. Finally, 3-(4,5-dimethylthiazol-2-yl)-2,5-diphenyltetrazolium bromide (MTT; 20 μL of the solution prepared by dissolving MTT (5 mg) in PBS buffer (1 mL)) was added to each well, incubated for 3 h, treated with sodium dodecyl sulfate (SDS) solution (90 μL, 10% solution in 0.01 M aqueous HCl), and incubated overnight. Then the intensity of absorbance at 590 nm was measured (MTT is converted to blue dye (λmax = 590 nm) in live cells). The absorbance at 690 nm was taken as a baseline value.

[2] = Solubility of prodrugs in aqueous buffers (absorbance at 790 nm); assay type: physicochemical
Protocol: Prodrugs 5, 7 and 9 (known control) were dissolved in DMSO at concentrations of 15, 10, 5, 2, 1.5, 1, and 0.2 mM. These solutions (10 μL) were transferred to quartz cuvettes containing 990 μL of either Dulbecco's phosphate-buffered saline (DPBS) or Roswell Park Memorial Institute (RPMI) medium containing 20% of fetal bovine serum (FBS) to obtain solutions (or suspensions) with final concentrations of prodrugs-150, 100, 50, 20, 15, 10, and 2 μM. The absorbance at 790 nm of the resulting solutions/suspensions was measured and plotted as a function of the concentration of prodrugs.

Jurkat cells [3] = experiment: Viability and cell death of Jurkat cells (Annexin A5-FITC/PI flow cytometry); assay type: cell-based, human; settings: for Mechanism of cell death of Jurkat cells: 48 h, Ax/PI staining; for IC50: 48 h incubation
Protocol: Jurkat cells were counted in MUSE Cell Analyzer using MUSE® Count &Viability Assay Kit (Merck-Millipore, Billerica, MA, USA) and adjusted to a density of 1.0 × 10^5/mL in RPMI 1640 medium (with 10% FCS and 1% glutamine). A total of 9000 cells per well per 90 μL were seeded into 96 well culture plates. The 50 mM prodrug stock solutions were diluted to 300, 100, 30, and 10 μM in cell culture medium and 10 μL of the dilutions was pipetted to the cells, receiving final test concentrations of 30, 10, 3, and 1 μM. Every concentration was tested in triplicates. Cells with corresponding amounts of DMSO served as negative controls. […] was incubated with 200 μL of freshly prepared staining solution, consisting of 1 μl Annexin A5-Fitc, 0.4 μL 1,1′,3,3,3′,3′-hexamethylindodicarbocyanine iodide (DiIC1(5)) (both from Thermo Fisher Scientific, Waltham, MA, USA), 66.6 ng propidiumiodide (PI) and 33 μM monobromobimane (MBB, both from Sigma-Aldrich, Taufkirchen, Germany) per 1 mL Ringer’s solution (Fresenius Kabi AG, Bad Homburg, Germany). Cells were incubated for 20 min at 4 °C and then analyzed in Gallios cytofluorometer™ (Beckman Coulter, Fullerton, CA, USA). Fitc and propidium iodide were excited at 488 nm; Fitc fluorescence was recorded on the FL1 sensor (525/38 nm band pass, BP) and propidium iodide fluorescence was detected on FL3 sensor (620/30 nm BP), DiIC1(5) fluorescence was excited at 638 nm and detected on FL6 sensor at 675/20 nm. Monobromobimane fluorescence was excited at 405 nm and detected on FL9 sensor at 430/40 nm. To eliminate any fluorescence bleed-through, electronic compensation was used. Data were analyzed employing Kaluza™ software Version 1.2 (Beckman Coulter, Fullerton, CA, USA) and processed in Microsoft Excel. Cells negative for Annexin A5- Fitc and propidium iodide were considered viable. IC50 values were determined by fitting the % values of Ax-PI- cells versus drug concentration with a sigmoidal curve using GraphPad Prism software. Reduced glutathione (an intracellular thiol) can be detected by monobromobimane, a dye that becomes fluorescent after non-enzymatic binding to thiols. For analysis of the amount of mitochondrial membrane potential or reduced glutathione, the mean fluorescence index (MFI) was determined from viable cells by gating on Ax-PI-events.

DU-145 cells = experiment: Viability of adherent DU-145 cells (MTT); assay type: cell-based, human
Protocol: as §1

HDFa cells = experiment: Viability of adherent HDFa cells (MTT); assay type: cell-based, human; settings: 48 h incubation, normal cells
Protocol: as §1

Jurkat cells [4] = experiment: Mitochondrial membrane potential of Jurkat cells (DiIC1(5)); assay type: cell-based, human; settings: 48 h; 5 at nontoxic concentrations ≤ 10 μM; 12 at all tested concentrations
Protocol: Jurkat cells were counted in MUSE Cell Analyzer using MUSE® Count &Viability Assay Kit (Merck-Millipore, Billerica, MA, USA) and adjusted to a density of 1.0 × 10^5/mL in RPMI 1640 medium (with 10% FCS and 1% glutamine). A total of 9000 cells per well per 90 μL were seeded into 96 well culture plates. The 50 mM prodrug stock solutions were diluted to 300, 100, 30, and 10 μM in cell culture medium and 10 μL of the dilutions was pipetted to the cells, receiving final test concentrations of 30, 10, 3, and 1 μM. Every concentration was tested in triplicates. Cells with corresponding amounts of DMSO served as negative controls. […] Cells were incubated for 20 min at 4 °C and then analyzed in Gallios cytofluorometer™ (Beckman Coulter, Fullerton, CA, USA). Fitc and propidium iodide were excited at 488 nm; Fitc fluorescence was recorded on the FL1 sensor (525/38 nm band pass, BP) and propidium iodide fluorescence was detected on FL3 sensor (620/30 nm BP), DiIC1(5) fluorescence was excited at 638 nm and detected on FL6 sensor at 675/20 nm. Monobromobimane fluorescence was excited at 405 nm and detected on FL9 sensor at 430/40 nm. To eliminate any fluorescence bleed-through, electronic compensation was used. Data were analyzed employing Kaluza™ software Version 1.2 (Beckman Coulter, Fullerton, CA, USA) and processed in Microsoft Excel. […]

SMILES	Initial rate (dF/dt)0 of DCFH oxidation in the presence of H2O2 [1] [a.u. × min^−1]	Activity in DCFH oxidation assay relative to prodrug 5 [1] [fold]	IC50 (BL-2 cells; BL2, 48 h incubation) [µM]	Mechanism of cell death of Jurkat cells (Jurkat cells [3])	IC50 (Jurkat cells [3]) [µM]	IC50 (A2780 cells; 24 h incubation) [µM]	IC50 (A2780 cells; 48 h incubation) [µM]	IC50 (A2780 cells; 96 h incubation) [µM]	IC50 (DU-145 cells; 24 h incubation) [µM]	IC50 (DU-145 cells; 48 h incubation) [µM]	IC50 (DU-145 cells; 96 h incubation) [µM]	IC50 (BL-2 cells; 24 h incubation) [µM]	IC50 (BL-2 cells; 48 h incubation) [µM]	IC50 (BL-2 cells; 96 h incubation) [µM]	other results
CC1(C)OB(c2ccc(COC(=O)N(Cc3cccc(CN4CCCCC4)c3)[c-]3cccc3)cc2)OC1(C)C.[Fe+2].c1cc[cH-]c1 [prodrug 8]	17.1	2.2	–	–	–	–	–	–	–	–	–	–	–	–	–
C#Cc1ccc(-c2c3ccc(=[N+](C)C)cc-3oc3cc(N(C)C)ccc23)c(C(=O)[O-])c1 [control 13]	–	–	35 ± 6	–	–	–	–	–	–	–	–	–	–	–	IC50 (A2780 cells; Homo sapiens, A2780, 48 h incubation): > 50 µM
COC(=O)CCCCCn1cc(CN(C(=O)OCc2ccc(B3OC(C)(C)C(C)(C)O3)cc2)[c-]2cccc2)nn1.[Fe+2].c1cc[cH-]c1 [prodrug 9]	–	–	–	mostly via necrosis	30 ± 4	42 ± 3	32 ± 3	30 ± 5	> 50	47 ± 2	35 ± 3	37 ± 2	35 ± 2	33 ± 2	Solubility in DPBS ([2]; DPBS containing DMSO (1%, v/v)): 90 ± 10 µM; Solubility in FBS ([2]; RPMI medium containing 20% FBS and DMSO (1%, v/v)): 114 ± 11 µM; IC50 (HDFa cells): > 50 µM
[Fe+2].c1cc[cH-]c1.c1cc[cH-]c1 [control 11, ferrocene]	–	–	–	–	> 50	> 50	> 50	> 50	> 50	> 50	> 50	> 50	> 50	> 50	–
CCCC[P+](c1ccccc1)(c1ccccc1)c1ccccc1 [control 12]	–	–	0.5 ± 0.2	mostly via necrosis	–	–	–	–	–	–	–	–	–	–	Effect on mitochondrial potential of Jurkat cells (Jurkat cells [4]): reduces the mitochondrial potential; IC50 (BL-2 cells; BL2, 24 h incubation): 2 ± 1 µM; IC50 (BL-2 cells; BL2, 96 h incubation): 0.3 ± 0.1 µM; IC50 (HDFa cells; Homo sapiens, HDFa): < 1 µM
O=S(=O)([O-])[O-].[Fe+2] [FeSO4]	22.3	2.9	–	–	–	–	–	–	–	–	–	–	–	–	–
